{"source": "patent US20230270735A1", "about": "“TOPICAL FORMULATION” (INCANTHERA (R&D) LTD, priority 2020, published 2023)", "origin": "cited, not measured here", "key": {"actinic keratoses (AK)": {"tested_on": "actinic keratoses (AK)", "conditions": "4 months"}, "PARP-1": {"target": "PARP-1 (Homo sapiens, UniProt P09874)", "sequence (P09874 whole entry, species assumed)": "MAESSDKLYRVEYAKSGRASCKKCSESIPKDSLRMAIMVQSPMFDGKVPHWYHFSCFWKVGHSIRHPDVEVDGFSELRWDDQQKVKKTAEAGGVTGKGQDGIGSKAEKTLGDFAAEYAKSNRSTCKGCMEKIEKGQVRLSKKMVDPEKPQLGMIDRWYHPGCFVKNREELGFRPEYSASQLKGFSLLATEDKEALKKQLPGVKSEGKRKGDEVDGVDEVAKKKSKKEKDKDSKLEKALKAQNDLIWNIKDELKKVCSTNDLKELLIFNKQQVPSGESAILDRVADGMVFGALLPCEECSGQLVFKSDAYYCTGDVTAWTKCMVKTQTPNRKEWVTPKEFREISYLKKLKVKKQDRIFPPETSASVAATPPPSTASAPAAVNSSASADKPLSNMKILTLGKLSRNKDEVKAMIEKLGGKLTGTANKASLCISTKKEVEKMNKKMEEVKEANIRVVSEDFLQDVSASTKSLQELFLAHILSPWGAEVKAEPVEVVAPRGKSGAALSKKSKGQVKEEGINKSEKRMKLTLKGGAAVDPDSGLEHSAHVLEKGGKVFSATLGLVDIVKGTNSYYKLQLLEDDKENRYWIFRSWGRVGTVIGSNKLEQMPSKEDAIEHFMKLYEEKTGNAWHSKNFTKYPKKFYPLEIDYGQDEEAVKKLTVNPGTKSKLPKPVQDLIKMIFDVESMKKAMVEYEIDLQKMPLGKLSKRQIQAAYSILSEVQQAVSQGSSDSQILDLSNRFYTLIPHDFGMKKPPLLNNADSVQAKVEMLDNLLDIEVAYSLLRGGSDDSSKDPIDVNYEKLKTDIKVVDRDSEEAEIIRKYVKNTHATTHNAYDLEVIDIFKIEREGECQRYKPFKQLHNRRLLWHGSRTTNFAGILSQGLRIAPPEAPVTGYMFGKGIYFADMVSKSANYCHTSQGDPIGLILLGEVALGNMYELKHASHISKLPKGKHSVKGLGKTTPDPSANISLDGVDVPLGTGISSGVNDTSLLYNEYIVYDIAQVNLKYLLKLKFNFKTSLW", "conditions": "at a concentration of 50 μmol L^−1, in vitro"}, "[1]": {"experiment": "not given", "remark": "listed apart in the source"}}, "note": "Read-outs that look alike come from different tables or passages of the source."}
{"smiles": "NC(=O)c1cccnc1", "note": "[NAM, pyridine-3-carboxamide]", "values": [{"measurement": "Log P (octanol/water)", "result": "−0.4"}, {"measurement": "reduction in AK versus baseline", "setting": "actinic keratoses (AK); study 1, oral 500 mg twice daily", "result": 35, "unit": "%"}, {"measurement": "reduction in AK versus baseline", "setting": "actinic keratoses (AK); study 2, oral 500 mg once daily", "result": 29, "unit": "%"}, {"measurement": "inhibition of PARP-1", "setting": "PARP-1", "result": 60, "unit": "%"}, {"measurement": "rate of new nonmelanoma skin cancers lowered compared with placebo", "setting": "nonmelanoma skin cancers; oral 500 mg twice a day, 12 months", "result": 23, "unit": "%"}, {"measurement": "CD4^+ helper T cells and cytotoxic CD8^+ T cells in the tumour microenvironment of melanomas, compared with placebo", "setting": "nonmelanoma skin cancers; oral NAM group", "result": "significant increase"}, {"measurement": "systemic adverse effects", "setting": "nonmelanoma skin cancers; oral doses 500-1,000 mg/day", "result": "without significant systemic adverse effects"}, {"measurement": "range of peak plasma concentrations", "setting": "[1]; 1 g (~0.5 g/M^2) oral dose, healthy volunteers", "result": "81 to 158", "unit": "µmol/L"}, {"measurement": "peak plasma concentrations", "setting": "[1]; oral 500 mg, extrapolated by Malesu et al. (22) from Stratford data", "result": "~80", "unit": "µmol/L"}]}
